{"source": "patent US20220331274A1", "about": "“METHODS OF TREATING CANCER” (Inspirna, Inc., priority 2019, published 2022)", "key": {"CYP2B6": {"tested_on": "CYP2B6", "test": "CYP induction in primary cultures of cryopreserved hepatocytes", "format": "in vitro ADME"}, "OAT1": {"molecular_target": "OAT1 (Homo sapiens, UniProt Q4U2R8)", "test": "transporter inhibition in vitro", "format": "in vitro ADME"}, "CYP2C19": {"molecular_target": "CYP2C19 (Homo sapiens, UniProt P33261)", "test": "in vitro CYP metabolism", "format": "in vitro ADME"}, "CYP2C9": {"molecular_target": "CYP2C9 (Homo sapiens, UniProt P11712)", "sequence (P11712 whole entry)": "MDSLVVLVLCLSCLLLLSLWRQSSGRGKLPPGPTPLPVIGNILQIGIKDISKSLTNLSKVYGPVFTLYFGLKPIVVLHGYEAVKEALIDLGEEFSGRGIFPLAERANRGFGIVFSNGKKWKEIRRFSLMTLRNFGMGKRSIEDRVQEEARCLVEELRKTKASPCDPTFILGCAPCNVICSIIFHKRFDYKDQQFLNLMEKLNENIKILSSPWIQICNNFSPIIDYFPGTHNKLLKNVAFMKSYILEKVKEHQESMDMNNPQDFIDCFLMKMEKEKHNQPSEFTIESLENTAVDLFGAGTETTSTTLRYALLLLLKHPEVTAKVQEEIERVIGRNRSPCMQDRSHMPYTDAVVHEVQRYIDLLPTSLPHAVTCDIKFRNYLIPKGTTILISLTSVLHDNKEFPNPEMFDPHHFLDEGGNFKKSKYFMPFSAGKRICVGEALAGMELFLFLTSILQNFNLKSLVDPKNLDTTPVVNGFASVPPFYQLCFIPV", "test": "in vitro CYP metabolism", "format": "in vitro ADME"}, "OCT2": {"molecular_target": "OCT2 (Homo sapiens, UniProt O15244)", "sequence (O15244 whole entry)": "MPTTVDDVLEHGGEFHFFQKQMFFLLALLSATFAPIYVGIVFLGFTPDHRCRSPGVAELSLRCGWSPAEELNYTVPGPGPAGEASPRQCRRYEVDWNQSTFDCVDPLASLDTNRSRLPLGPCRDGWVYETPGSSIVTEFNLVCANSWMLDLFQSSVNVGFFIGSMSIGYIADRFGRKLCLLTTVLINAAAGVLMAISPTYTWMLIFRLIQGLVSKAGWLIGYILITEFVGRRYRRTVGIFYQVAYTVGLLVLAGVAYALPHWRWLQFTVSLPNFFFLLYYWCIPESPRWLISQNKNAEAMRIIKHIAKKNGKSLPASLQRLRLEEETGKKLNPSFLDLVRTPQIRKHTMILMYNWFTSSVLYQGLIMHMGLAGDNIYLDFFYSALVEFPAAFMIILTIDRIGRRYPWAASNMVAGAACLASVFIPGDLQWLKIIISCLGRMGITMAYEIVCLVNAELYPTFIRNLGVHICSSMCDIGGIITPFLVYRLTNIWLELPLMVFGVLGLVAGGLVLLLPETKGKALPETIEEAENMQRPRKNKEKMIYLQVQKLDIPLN", "test": "transporter inhibition in vitro", "format": "in vitro ADME"}, "[1]": {"test": "oral PK study in CD-1 mice", "format": "in vivo"}, "LXRα": {"molecular_target": "LXRα (Homo sapiens, UniProt Q13133)", "test": "cell-based biosensor assay", "conditions": "read-out: median effective concentration (EC50) for LXRα"}, "[2]": {"test": "oral PK study in Cynomolgus monkeys", "format": "in vivo", "conditions": "cynomolgus monkey, plasma"}, "[3]": {"molecular_target": "human ether-n-go-go-related gene (hERG) channel (Homo sapiens, UniProt Q12809)", "sequence (Q12809 whole entry)": "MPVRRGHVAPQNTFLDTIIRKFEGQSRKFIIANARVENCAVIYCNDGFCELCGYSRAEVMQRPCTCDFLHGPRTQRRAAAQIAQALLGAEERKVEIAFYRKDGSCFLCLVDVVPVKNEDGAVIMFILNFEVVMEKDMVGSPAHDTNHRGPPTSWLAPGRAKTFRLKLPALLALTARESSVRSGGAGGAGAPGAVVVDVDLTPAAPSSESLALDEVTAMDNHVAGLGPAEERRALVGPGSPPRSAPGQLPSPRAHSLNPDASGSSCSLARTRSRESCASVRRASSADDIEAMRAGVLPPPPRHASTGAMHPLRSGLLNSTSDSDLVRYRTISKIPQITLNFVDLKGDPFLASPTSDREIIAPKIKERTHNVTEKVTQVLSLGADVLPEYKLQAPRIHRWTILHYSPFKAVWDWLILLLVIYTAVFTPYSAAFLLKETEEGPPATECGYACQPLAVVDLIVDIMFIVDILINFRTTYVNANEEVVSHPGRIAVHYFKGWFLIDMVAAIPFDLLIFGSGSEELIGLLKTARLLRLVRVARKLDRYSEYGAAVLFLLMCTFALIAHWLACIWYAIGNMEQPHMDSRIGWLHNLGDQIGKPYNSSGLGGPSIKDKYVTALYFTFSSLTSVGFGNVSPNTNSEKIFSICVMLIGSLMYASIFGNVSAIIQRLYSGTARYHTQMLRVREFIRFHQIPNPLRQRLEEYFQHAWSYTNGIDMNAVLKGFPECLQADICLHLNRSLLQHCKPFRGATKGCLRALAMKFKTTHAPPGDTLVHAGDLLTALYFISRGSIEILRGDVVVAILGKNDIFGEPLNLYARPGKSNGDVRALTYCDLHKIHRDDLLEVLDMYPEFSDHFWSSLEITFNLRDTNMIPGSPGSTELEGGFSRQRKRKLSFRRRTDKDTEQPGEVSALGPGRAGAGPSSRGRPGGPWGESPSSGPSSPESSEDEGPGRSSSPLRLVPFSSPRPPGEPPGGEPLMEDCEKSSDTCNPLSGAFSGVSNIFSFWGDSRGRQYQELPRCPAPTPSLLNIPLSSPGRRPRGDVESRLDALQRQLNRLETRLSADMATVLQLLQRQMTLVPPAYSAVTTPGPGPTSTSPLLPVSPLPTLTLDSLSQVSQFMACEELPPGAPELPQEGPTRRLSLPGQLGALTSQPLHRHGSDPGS", "test": "in vitro hERG assay", "format": "cell-based"}, "BCRP": {"molecular_target": "BCRP (Homo sapiens, UniProt Q9UNQ0)", "test": "efflux transporter inhibition in vitro", "format": "in vitro ADME", "conditions": "read-out: inhibition of BCRP transport"}, "MDSCs": {"tested_on": "MDSCs", "test": "reduction of MDSCs in circulation and in tumors", "format": "in vivo"}, "mouse melanoma": {"tested_on": "mouse melanoma", "test": "syngeneic mouse melanoma model", "format": "in vivo"}, "CYP3A4": {"molecular_target": "CYP3A4 (Homo sapiens, UniProt P08684)", "sequence (P08684 whole entry)": "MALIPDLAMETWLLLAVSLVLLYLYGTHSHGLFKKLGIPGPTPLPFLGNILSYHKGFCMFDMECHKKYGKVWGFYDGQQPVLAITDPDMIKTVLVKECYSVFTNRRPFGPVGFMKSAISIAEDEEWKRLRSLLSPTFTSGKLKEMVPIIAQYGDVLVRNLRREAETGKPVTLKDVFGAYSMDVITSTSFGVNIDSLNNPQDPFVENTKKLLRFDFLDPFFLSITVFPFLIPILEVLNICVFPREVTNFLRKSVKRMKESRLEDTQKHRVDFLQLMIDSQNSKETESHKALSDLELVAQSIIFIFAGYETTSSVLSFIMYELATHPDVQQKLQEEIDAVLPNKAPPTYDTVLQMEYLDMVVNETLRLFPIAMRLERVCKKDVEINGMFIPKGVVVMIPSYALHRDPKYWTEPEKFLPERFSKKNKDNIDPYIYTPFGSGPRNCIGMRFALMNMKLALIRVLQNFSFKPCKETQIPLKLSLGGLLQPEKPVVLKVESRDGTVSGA", "test": "in vitro CYP metabolism", "format": "in vitro ADME"}, "LXRβ": {"molecular_target": "LXRβ (Homo sapiens, UniProt P55055)", "sequence (P55055 whole entry)": "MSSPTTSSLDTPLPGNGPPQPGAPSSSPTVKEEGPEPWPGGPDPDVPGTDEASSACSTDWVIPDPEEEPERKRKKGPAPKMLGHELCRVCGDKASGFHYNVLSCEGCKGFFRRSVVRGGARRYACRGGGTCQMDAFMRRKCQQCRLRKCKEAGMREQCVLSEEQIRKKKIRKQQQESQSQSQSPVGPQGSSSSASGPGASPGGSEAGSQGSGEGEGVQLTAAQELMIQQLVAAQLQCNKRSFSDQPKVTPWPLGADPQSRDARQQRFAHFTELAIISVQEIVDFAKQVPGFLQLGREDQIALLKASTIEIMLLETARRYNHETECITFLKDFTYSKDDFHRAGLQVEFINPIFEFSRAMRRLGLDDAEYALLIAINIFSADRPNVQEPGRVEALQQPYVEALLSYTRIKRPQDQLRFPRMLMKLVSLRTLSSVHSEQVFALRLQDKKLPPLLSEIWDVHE", "test": "cell-based biosensor assay"}, "cancer cells": {"tested_on": "cancer cells", "test": "cancer cell invasion in vitro", "format": "cell-based"}, "melanoma xenograft": {"tested_on": "melanoma xenograft", "test": "melanoma xenograft study in non-obese diabetic-severe combined immunodeficiency mice", "format": "in vivo", "conditions": "25 mg/kg"}, "[4]": {"test": "safety pharmacology, ECG and heart rate in dogs", "format": "in vivo"}, "2C19": {"molecular_target": "2C19 (Homo sapiens, UniProt P33261)", "test": "in vitro CYP450 inhibition", "format": "in vitro ADME"}, "[5]": {"test": "single agent therapy in subjects, toxicities", "format": "in vivo"}, "[6]": {"test": "pre-clinical toxicity studies", "format": "in vivo"}, "TNBC metastasis": {"tested_on": "TNBC metastasis", "test": "mouse model of TNBC metastasis", "conditions": "in vivo"}, "endothelial cells": {"tested_on": "endothelial cells", "test": "endothelial recruitment in vitro", "format": "cell-based"}, "[7]": {"test": "neurobehavioral functional observation battery (FOB) and respiratory evaluations in rats", "format": "in vivo"}, "CYP1A2": {"tested_on": "CYP1A2", "test": "CYP induction in primary cultures of cryopreserved hepatocytes", "format": "in vitro ADME"}, "CYP2E1": {"molecular_target": "CYP2E1 (Homo sapiens, UniProt P05181)", "sequence (P05181 whole entry)": "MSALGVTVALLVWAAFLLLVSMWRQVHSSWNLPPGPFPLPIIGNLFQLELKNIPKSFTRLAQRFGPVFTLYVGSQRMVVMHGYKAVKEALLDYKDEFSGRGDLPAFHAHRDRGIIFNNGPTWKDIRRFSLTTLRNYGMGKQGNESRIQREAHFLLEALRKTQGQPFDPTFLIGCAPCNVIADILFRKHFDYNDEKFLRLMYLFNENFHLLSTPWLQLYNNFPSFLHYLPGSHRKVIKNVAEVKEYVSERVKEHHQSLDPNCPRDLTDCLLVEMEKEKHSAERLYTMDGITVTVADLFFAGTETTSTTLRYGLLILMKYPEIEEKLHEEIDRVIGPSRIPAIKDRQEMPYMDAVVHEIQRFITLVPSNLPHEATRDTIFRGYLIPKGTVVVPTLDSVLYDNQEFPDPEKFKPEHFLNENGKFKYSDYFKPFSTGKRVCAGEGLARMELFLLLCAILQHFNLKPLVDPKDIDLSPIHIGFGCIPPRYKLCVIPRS", "test": "in vitro CYP metabolism", "format": "in vitro ADME"}, "1A1": {"molecular_target": "1A1 (Homo sapiens, UniProt P04798)", "sequence (P04798 whole entry)": "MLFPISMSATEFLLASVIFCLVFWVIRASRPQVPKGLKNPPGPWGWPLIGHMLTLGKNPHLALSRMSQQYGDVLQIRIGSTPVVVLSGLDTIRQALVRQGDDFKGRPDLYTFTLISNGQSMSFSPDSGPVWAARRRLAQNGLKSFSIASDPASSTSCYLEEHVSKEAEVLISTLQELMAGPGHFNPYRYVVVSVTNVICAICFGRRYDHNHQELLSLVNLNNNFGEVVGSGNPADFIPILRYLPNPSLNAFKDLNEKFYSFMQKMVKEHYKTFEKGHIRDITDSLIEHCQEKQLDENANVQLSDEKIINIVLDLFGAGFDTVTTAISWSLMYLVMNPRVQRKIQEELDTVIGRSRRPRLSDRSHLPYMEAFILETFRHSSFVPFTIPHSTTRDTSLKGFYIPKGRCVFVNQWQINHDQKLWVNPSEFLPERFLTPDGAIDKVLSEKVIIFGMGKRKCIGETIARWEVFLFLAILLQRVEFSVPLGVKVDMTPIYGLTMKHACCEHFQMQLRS", "test": "in vitro CYP450 inhibition", "format": "in vitro ADME"}, "[8]": {"test": "oral PK study in Sprague-Dawley rats", "format": "in vivo"}, "2B6": {"molecular_target": "2B6 (Homo sapiens, UniProt P20813)", "test": "in vitro CYP450 inhibition", "format": "in vitro ADME"}, "OAT3": {"molecular_target": "OAT3 (Homo sapiens, UniProt Q8TCC7)", "sequence (Q8TCC7 whole entry)": "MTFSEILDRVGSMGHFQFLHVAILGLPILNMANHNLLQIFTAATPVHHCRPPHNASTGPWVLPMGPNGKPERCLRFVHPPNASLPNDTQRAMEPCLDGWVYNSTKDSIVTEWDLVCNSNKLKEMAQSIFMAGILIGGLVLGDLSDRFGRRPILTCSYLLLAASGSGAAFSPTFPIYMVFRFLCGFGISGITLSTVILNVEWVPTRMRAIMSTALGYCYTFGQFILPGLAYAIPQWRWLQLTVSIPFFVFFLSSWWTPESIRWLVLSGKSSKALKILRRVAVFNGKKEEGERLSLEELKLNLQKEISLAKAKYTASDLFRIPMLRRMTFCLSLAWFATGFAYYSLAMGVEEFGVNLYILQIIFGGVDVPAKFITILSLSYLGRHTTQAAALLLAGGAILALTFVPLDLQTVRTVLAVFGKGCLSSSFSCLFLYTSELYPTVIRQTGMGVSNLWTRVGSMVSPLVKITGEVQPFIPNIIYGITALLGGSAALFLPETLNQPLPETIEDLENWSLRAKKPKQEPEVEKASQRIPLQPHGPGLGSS", "test": "transporter inhibition in vitro", "format": "in vitro ADME"}}}
{"smiles": "C[C@H](CCOc1cccc(CC(=O)O)c1)N(Cc1cccc(C(F)(F)F)c1Cl)CC(c1ccccc1)c1ccccc1", "note": "[2-[3-[(3R)-3-[[2-chloro-3-(trifluoromethyl)phenyl]methyl-(2,2-diphenylethyl)amino]butoxy]phenyl]acetic acid]", "values": [{"measurement": "CYP2B6 induction", "setting": "CYP2B6; 1 concentration in ⅓ donors", "result": "> 2", "unit": "fold"}, {"measurement": "potential to induce CYP2B6", "setting": "CYP2B6; cryopreserved hepatocytes", "result": "cannot be ruled out"}, {"measurement": "inhibition at 50 µM", "setting": "OAT1", "result": "< 50", "unit": "%"}, {"measurement": "substrate for CYP2C19", "setting": "CYP2C19", "result": "a substrate"}, {"measurement": "substrate for CYP2C9", "setting": "CYP2C9", "result": "a substrate"}, {"measurement": "inhibition at 50 µM", "setting": "OCT2", "result": "< 50", "unit": "%"}, {"measurement": "half-life", "setting": "[1]; CD-1, mouse, plasma, po, mice, read-out: mean apparent oral half-life (t½)", "result": "6.5 to 8", "unit": "h"}, {"measurement": "Tmax", "setting": "[1]; both sexes, mouse, plasma, po, CD-1 mice, males and females, read-out: time to maximum plasma concentration (Tmax)", "result": "2 to 8", "unit": "h"}, {"measurement": "food effect: plasma concentrations higher in the fed state", "setting": "[1]; mice, fed state", "result": "> 2", "unit": "fold"}, {"measurement": "bioavailability", "setting": "[1]; mouse, plasma, CD-1 mice, oral, read-out: absolute oral bioavailability (% F)", "result": "> 100", "unit": "%"}, {"measurement": "EC50", "setting": "LXRα", "result": 336, "unit": "nM"}, {"measurement": "Tmax", "setting": "[2]; oral dose", "result": 4, "unit": "h"}, {"measurement": "bioavailability", "setting": "[2]; po, depending on dose and formulation, read-out: mean % F", "result": "6 to 19", "unit": "%"}, {"measurement": "half-life", "setting": "[2]; po, read-out: mean oral t½", "result": "5.5 to 8", "unit": "h"}, {"measurement": "hERG channel conductance", "setting": "[3]", "result": "significant increase, but not inhibition"}, {"measurement": "inhibition at 5 µM", "setting": "BCRP", "result": 55, "unit": "%"}, {"measurement": "reduction of MDSCs in circulation", "setting": "MDSCs; in circulation", "result": "~40", "unit": "%"}, {"measurement": "reduction of MDSCs in tumors", "setting": "MDSCs; in tumors", "result": "> 60", "unit": "%"}, {"measurement": "tumor growth", "setting": "mouse melanoma; 50 mg/kg in combination with anti-PD1 therapy, tumors otherwise resistant to PD-1 inhibition", "result": "significant suppression of tumor growth"}, {"measurement": "inhibition of tumor growth", "setting": "mouse melanoma; combination with anti-CTLA-4 antibody relative to either therapy alone", "result": "superior"}, {"measurement": "tumor growth inhibition", "setting": "mouse melanoma; in combination with an anti-PD-1 antibody, model otherwise not responsive to anti-PD-1 antibody", "result": "> 80", "unit": "%"}, {"measurement": "anti-tumor efficacy", "setting": "mouse melanoma; in combination with dacarbazine, compared to either treatment alone", "result": "> 80", "unit": "%"}, {"measurement": "metabolism by CYP3A4", "setting": "CYP3A4", "result": "metabolized predominantly"}, {"measurement": "specificity for LXRβ than LXRα", "setting": "LXRβ; from EC50 values", "result": "approximately 2.9 fold"}, {"measurement": "EC50", "setting": "LXRβ; read-out: median effective concentration (EC50) for LXRβ", "result": 118, "unit": "nM"}, {"measurement": "suppression of cancer cell invasion", "setting": "cancer cells", "result": "~45", "unit": "%"}, {"measurement": "growth of the xenograft", "setting": "melanoma xenograft", "result": "significantly inhibited growth of the xenograft"}, {"measurement": "compound-related effects on qualitative ECG parameters (PR or QTc intervals or QRS duration)", "setting": "[4]", "result": "no"}, {"measurement": "mean heart rate", "setting": "[4]; Day 1 post-dose interval, significant in females at 150 (stepped down to 100) mg/kg/day, not considered adverse", "result": "dose related decrease in mean heart rate"}, {"measurement": "inhibition of 2C19", "setting": "2C19", "result": "very weakly inhibited"}, {"measurement": "dose-limiting toxicity (DLT)", "setting": "[5]; single agent therapy", "result": "DLT of Grade 4 neutropenia"}, {"measurement": "hyperlipidemia in treated subjects", "setting": "[5]; subjects treated", "result": "hyperlipidemia has been observed"}, {"measurement": "liver function", "setting": "[6]", "result": "Liver function abnormalities have been observed"}, {"measurement": "inhibition of metastatic spread of cancer cells", "setting": "TNBC metastasis", "result": "~9", "unit": "fold"}, {"measurement": "inhibition of endothelial recruitment", "setting": "endothelial cells", "result": "~50", "unit": "%"}, {"measurement": "neurobehavioral FOB or respiratory evaluations", "setting": "[7]", "result": "no adverse effects were noted"}, {"measurement": "induction of CYP1A2", "setting": "CYP1A2", "result": "did not induce"}, {"measurement": "substrate for CYP2E1", "setting": "CYP2E1", "result": "a substrate"}, {"measurement": "inhibition of 1A1", "setting": "1A1", "result": "very weakly inhibited"}, {"measurement": "half-life", "setting": "[8]; Sprague-Dawley, rat, plasma, po, female rats, read-out: mean apparent oral t½ (converted)", "result": 6.5, "unit": "h"}, {"measurement": "clearance, female versus male rats", "setting": "[8]; all dose levels, higher systemic exposure in females", "result": "cleared at a lower rate in female rats compared to males"}, {"measurement": "Tmax", "setting": "[8]; both sexes, rat, plasma, po, Sprague-Dawley rats, males and females", "result": "4 to 8", "unit": "h"}, {"measurement": "bioavailability", "setting": "[8]; rat, plasma, Sprague-Dawley rats, 30 mg/kg oral dose, read-out: combined, mean % F", "result": "~31", "unit": "%"}, {"measurement": "IC50", "setting": "2B6", "result": 15000, "unit": "nM"}, {"measurement": "inhibition at 50 µM", "setting": "OAT3", "result": "< 50", "unit": "%"}]}
